Patent US20230241243A1, “CARRIER PARTICLE-DRUG CONJUGATES, SELF-IMMOLATIVE LINKERS, AND USES THEREOF” (priority 2020, published 2023)

How the values were obtained:
[1] = Drug-release assay of nanoparticle-conjugated linker-payloads under cleavage conditions (Cat-B, redox-responsive or pH-sensitive cleaving study), RP-HPLC; format: in vitro ADME; conditions: linker-payload conjugated to DBCO-functionalized silica nanoparticle, 37° C., 24 hours
How it was run: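 Azide linker-drugs were click-conjugated to DBCO-functionalized ultrasmall silica nanoparticles and incubated under cleavage conditions, e.g., Cat-B in 25 mM MES, 5 mM DTT, pH 5.0. Released versus non-released drug was quantified by C18 RP-HPLC peak area. Gradients were 0.01% TFA water/acetonitrile for protease/redox linkers and water/acetonitrile for pH-sensitive linkers.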

KB cell line = conditions: read-out: IC50 in KB cell line (++++); FA ligands per particle 12-22; linker-drug conjugates per particle 17-25
Method: (§1) The in vitro cytotoxicity of the NDCs disclosed herein were tested in cancer cells. The cancer cells were cultured in folic acid-free medium (RPMI1640, ThermoFisher, GIBCO) for at least one week before the study. Cells were plated in opaque 96-well plates at a density of 3×10^3 cells per well (total of […]) and allowed to attach overnight. The following day, cells were treated with NDC (FA-CDC) prepared using the linker-payload conjugate precursor compound 202 (Example 33), at a concentration range of 0-50 nM (0, 0.001, 0.005, 0.01, 0.05, 0.1, 0.5, 1, 5, 10, 50 nM) by adding […] of 10x stock FA-CDC Solution.
(§2) Cells were treated for a pre-defined exposure time (depending on the study design, e.g., 4-6 hours, or 7 days). In the case of short-exposure-time viability study, cancer cells in each wells were washed with […] PBS and refreshed with […] of cell medium. After washing, the plates were returned back to 37° C. incubator for 7 days before the viability assay. In the case of 7-day-exposure-time viability study, no additional washing step was performed. After 7 days, the cell viability was assessed using the CellTiter-Glo2.0 assay (Promega) according to manufacturer's instructions. Data for both viability and proliferation were plotted using Prism7 software (GraphPad).

SKOV-3 cell line = assay: In vitro cell viability assay of FA-CDCs (CellTiter-Glo2.0); format: cell-based; conditions: FA ligands per particle 12-22; linker-drug conjugates per particle 17-25; read-out: IC50 inSKOV-3 cell line (+++)
Method: as §1
as §2, with “(GraphPad). Representative cell viability results of six FA-CDCs with similar surface density of Folic Acid targeting ligands and drug linkers is presented in provided in Table 4.” for “(GraphPad).”

## CC[C@@]1(O)C(=O)OCc2c1cc1n(c2=O)Cc2c-1nc1cc(F)c(C)c3c1c2[C@@H](NC(=O)OCc1ccc(NC(=O)[C@H](CCCCN)NC(=O)[C@@H](NC(=O)CCOCCOCCOCCOCCOCCOCCOCCOCCOCCN=[N+]=[N-])C(C)C)cc1)CC3 [Example 33, 4-((32S,35S)-35-(4-aminobutyl)-1-azido-32-isopropyl-30,33-dioxo-3,6,9,12,15,18,21,24,27-nonaoxa-31,34-diazahexatriacontan-36-amido)benzyl ((1S,9S)-9-ethyl-5-fluoro-9-hydroxy-4-methyl-10,13-dioxo-2,3,9,10,13,15-hexahydro-1H,12H-benzo[de]pyrano[3′,4′:6,7]indolizino[1,2-b]quinolin-1-yl)carbamate]
[1]
  % of Payload Release in 24 Hours Under Cleavage Conditions: ++++ (‘++++’ indicates 76-100% release)
KB cell line
  IC50: 0.3 nM
SKOV-3 cell line
  IC50: 0.13 nM

## CC[C@@]1(O)C(=O)OCc2c1cc1n(c2=O)Cc2c-1nc1cc(F)c(C)c3c1c2[C@@H](NC(=O)OCCSSCCNC(=O)CCOCCOCCOCCOCCOCCOCCOCCOCCOCCN=[N+]=[N-])CC3 [Example 57, 37-azido-8-oxo-11,14,17,20,23,26,29,32,35-nonaoxa-3,4-dithia-7-azaheptatriacontyl ((1S,9S)-9-ethyl-5-fluoro-9-hydroxy-4-methyl-10,13-dioxo-2,3,9,10,13,15-hexahydro-1H,12H-benzo[de]pyrano[3′,4′:6,7]indolizino[1,2-b]quinolin-1-yl)carbamate]
[1]
  % of Payload Release in 24 Hours Under Cleavage Conditions: +++ (‘+++’ indicates 51-75% release)
KB cell line
  IC50: 0.6 nM
SKOV-3 cell line
  IC50: 0.9 nM
